According to patent US8192962B2, “Processes for detecting toxic substances” (Daikin Industries, Ltd., priority 2001, dated 2012):

System: Mitochondria-located protein genes
Assay: DNA chip mRNA expression in yeast, mitochondria-located protein genes (Table 2)
Format: cell-based, Saccharomyces cerevisiae S288C
Conditions: cells incubated two hours with the chemical substance
Method in brief: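 Untreated cultures served as reference for log-phase S288C yeast given a growth-inhibiting, non-lethal toxicant dose for 2 h at 25° C. in YPD. Gene expression was measured on a whole-genome DNA chip from Cy3/Cy5-labeled cDNA.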

Na2As [(1)]
The level of expressed mRNA in the presence of chemical substance/The level of expressed mRNA in the absence of chemical substance (yeast gene YAL039C): 1.1 | The level of expressed mRNA in the presence of chemical substance/The level of expressed mRNA in the absence of chemical substance (yeast gene YBL022C): 0.4 | The level of expressed mRNA in the presence of chemical substance/The level of expressed mRNA in the absence of chemical substance (yeast gene YBL030C): 1.0 | The level of expressed mRNA in the presence of chemical substance/The level of expressed mRNA in the absence of chemical substance (yeast gene YBL038W): 1.0 | The level of expressed mRNA in the presence of chemical substance/The level of expressed mRNA in the absence of chemical substance (yeast gene YBL099W): 0.8 | The level of expressed mRNA in the presence of chemical substance/The level of expressed mRNA in the absence of chemical substance (yeast gene YBR003W): 0.9 | The level of expressed mRNA in the presence of chemical substance/The level of expressed mRNA in the absence of chemical substance (yeast gene YBR044C): 0.8 | The level of expressed mRNA in the presence of chemical substance/The level of expressed mRNA in the absence of chemical substance (yeast gene YBR091C): 1.1 | The level of expressed mRNA in the presence of chemical substance/The level of expressed mRNA in the absence of chemical substance (yeast gene YBR122C): 0.9 | The level of expressed mRNA in the presence of chemical substance/The level of expressed mRNA in the absence of chemical substance (yeast gene YBR185C): 1.2 | The level of expressed mRNA in the presence of chemical substance/The level of expressed mRNA in the absence of chemical substance (yeast gene YBR221C): 0.8 | The level of expressed mRNA in the presence of chemical substance/The level of expressed mRNA in the absence of chemical substance (yeast gene YBR251W): 1.0 | The level of expressed mRNA in the presence of chemical substance/The level of expressed mRNA in the absence of chemical substance (yeast gene YBR282W): 1.0 | The level of expressed mRNA in the presence of chemical substance/The level of expressed mRNA in the absence of chemical substance (yeast gene YCL057W): 0.6 | The level of expressed mRNA in the presence of chemical substance/The level of expressed mRNA in the absence of chemical substance (yeast gene YCR046C): 1.0 | The level of expressed mRNA in the presence of chemical substance/The level of expressed mRNA in the absence of chemical substance (yeast gene YCR083W): 1.1 | The level of expressed mRNA in the presence of chemical substance/The level of expressed mRNA in the absence of chemical substance (yeast gene YDL067C): 1.8 | The level of expressed mRNA in the presence of chemical substance/The level of expressed mRNA in the absence of chemical substance (yeast gene YDL181W): 1.3 | The level of expressed mRNA in the presence of chemical substance/The level of expressed mRNA in the absence of chemical substance (yeast gene YDL198C): 1.4 | The level of expressed mRNA in the presence of chemical substance/The level of expressed mRNA in the absence of chemical substance (yeast gene YDR079W): 1.3 | The level of expressed mRNA in the presence of chemical substance/The level of expressed mRNA in the absence of chemical substance (yeast gene YDR178W): 2.0 | The level of expressed mRNA in the presence of chemical substance/The level of expressed mRNA in the absence of chemical substance (yeast gene YDR231C): 1.1 | The level of expressed mRNA in the presence of chemical substance/The level of expressed mRNA in the absence of chemical substance (yeast gene YDR258C): 1.6 | The level of expressed mRNA in the presence of chemical substance/The level of expressed mRNA in the absence of chemical substance (yeast gene YDR298C): 1.3 | The level of expressed mRNA in the presence of chemical substance/The level of expressed mRNA in the absence of chemical substance (yeast gene YDR347W): 1.1 | The level of expressed mRNA in the presence of chemical substance/The level of expressed mRNA in the absence of chemical substance (yeast gene YDR377W): 1.3 | The level of expressed mRNA in the presence of chemical substance/The level of expressed mRNA in the absence of chemical substance (yeast gene YDR529C): 1.8 | The level of expressed mRNA in the presence of chemical substance/The level of expressed mRNA in the absence of chemical substance (yeast gene YEL024W): 1.3 | The level of expressed mRNA in the presence of chemical substance/The level of expressed mRNA in the absence of chemical substance (yeast gene YEL039C): 1.1 | The level of expressed mRNA in the presence of chemical substance/The level of expressed mRNA in the absence of chemical substance (yeast gene YER178W): 0.8 | The level of expressed mRNA in the presence of chemical substance/The level of expressed mRNA in the absence of chemical substance (yeast gene YFL016C): 0.8 | The level of expressed mRNA in the presence of chemical substance/The level of expressed mRNA in the absence of chemical substance (yeast gene YGL018C): 1.1 | The level of expressed mRNA in the presence of chemical substance/The level of expressed mRNA in the absence of chemical substance (yeast gene YGL187C): 1.5 | The level of expressed mRNA in the presence of chemical substance/The level of expressed mRNA in the absence of chemical substance (yeast gene YGL191W): 1.7 | The level of expressed mRNA in the presence of chemical substance/The level of expressed mRNA in the absence of chemical substance (yeast gene YGR008C): 2.1 | The level of expressed mRNA in the presence of chemical substance/The level of expressed mRNA in the absence of chemical substance (yeast gene YGR028W): 1.4 | The level of expressed mRNA in the presence of chemical substance/The level of expressed mRNA in the absence of chemical substance (yeast gene YGR062C): 0.9 | The level of expressed mRNA in the presence of chemical substance/The level of expressed mRNA in the absence of chemical substance (yeast gene YGR076C): 1.3 | The level of expressed mRNA in the presence of chemical substance/The level of expressed mRNA in the absence of chemical substance (yeast gene YGR082W): 1.0 | The level of expressed mRNA in the presence of chemical substance/The level of expressed mRNA in the absence of chemical substance (yeast gene YGR174C): 1.1 | The level of expressed mRNA in the presence of chemical substance/The level of expressed mRNA in the absence of chemical substance (yeast gene YGR244C): 1.0 | The level of expressed mRNA in the presence of chemical substance/The level of expressed mRNA in the absence of chemical substance (yeast gene YHR008C): 1.3 | The level of expressed mRNA in the presence of chemical substance/The level of expressed mRNA in the absence of chemical substance (yeast gene YIL155C): 1.0 | The level of expressed mRNA in the presence of chemical substance/The level of expressed mRNA in the absence of chemical substance (yeast gene YJL096W): 1.0 | The level of expressed mRNA in the presence of chemical substance/The level of expressed mRNA in the absence of chemical substance (yeast gene YJL102W): 1.1 | The level of expressed mRNA in the presence of chemical substance/The level of expressed mRNA in the absence of chemical substance (yeast gene YJL133W): 1.0 | The level of expressed mRNA in the presence of chemical substance/The level of expressed mRNA in the absence of chemical substance (yeast gene YJL166W): 2.1 | The level of expressed mRNA in the presence of chemical substance/The level of expressed mRNA in the absence of chemical substance (yeast gene YJL180C): 0.9 | The level of expressed mRNA in the presence of chemical substance/The level of expressed mRNA in the absence of chemical substance (yeast gene YJR045C): 0.5 | The level of expressed mRNA in the presence of chemical substance/The level of expressed mRNA in the absence of chemical substance (yeast gene YJR077C): 1.1
